Results: patent US20190322676A1, “CERAMIDE GALACTOSYLTRANSFERASE INHIBITORS FOR THE TREATMENT OF DISEASE” (BioMarin Pharmaceutical Inc., priority 2016, published 2019)
Structures can show the parent of a compound that is named as a salt.

The compounds below were run against T1, human CGT (ceramide galactosyltransferase), CHO/CGT lysate (Homo sapiens, UniProt Q16880) (assay: CGT enzyme assay, RapidFire/MS/MS readout with 0.01% Tween added (Table 1 ranges with two asterisks **)). Settings: CGT enzymatic assay; range with two asterisks (**): RapidFire/MS/MS method with 0.01% Tween added.
T1 construct: Full-length human CGT cDNA was cloned into the BamH1/Xho1 site of pcDNA3.1 (+); expressed in transfected cells; host or cells: Chinese hamster ovary (CHO) cells; lysate prepared with M-PER
T1 sequence (Q16880 21-541): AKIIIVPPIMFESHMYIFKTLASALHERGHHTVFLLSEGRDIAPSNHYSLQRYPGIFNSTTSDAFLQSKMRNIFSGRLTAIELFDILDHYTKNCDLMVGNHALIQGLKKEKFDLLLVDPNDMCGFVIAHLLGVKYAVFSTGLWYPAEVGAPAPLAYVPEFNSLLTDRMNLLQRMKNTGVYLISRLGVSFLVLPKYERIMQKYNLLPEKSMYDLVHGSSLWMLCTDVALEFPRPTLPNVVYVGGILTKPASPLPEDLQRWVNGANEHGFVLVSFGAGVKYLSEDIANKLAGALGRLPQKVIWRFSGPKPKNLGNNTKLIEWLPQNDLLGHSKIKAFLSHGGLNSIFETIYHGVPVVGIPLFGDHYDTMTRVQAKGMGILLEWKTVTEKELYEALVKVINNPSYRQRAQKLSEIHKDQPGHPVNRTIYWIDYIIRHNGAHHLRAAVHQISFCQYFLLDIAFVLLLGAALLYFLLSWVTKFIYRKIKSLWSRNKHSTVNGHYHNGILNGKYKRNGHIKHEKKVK
Format: biochemical
Procedure, shortened: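 IC50s come from variable-slope dose-response fits of internal-standard-normalized C6-NBD-dihydro-galactosylceramide, measured by RapidFire/MS/MS (ESI negative). Reactions: 1 h, 37 °C, human CGT-expressing CHO lysate (4 μg), 0.001–50 μM compound, 10 μM NBD-dihydro-ceramide, 17.5 μM UDP-galactose, 0.5% DMSO, pH 7.2; 0.01% Tween 80 added for ** values.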

Structure (SMILES)	IC50
NC(=NO)C1CCN(C(=O)[C@H](NS(=O)(=O)c2ccc3cc(OC4CCCC4)ccc3c2)C(F)(F)c2ccc(-c3ccc(Cl)cc3)cc2)CC1 [Compound 174-2, (S)-1-(3-(4′-chloro-[1,1′-biphenyl]-4-yl)-2-((6-(cyclopentyloxy)naphthalene)-2-sulfonamido)-3,3-difluoropropanoyl)-N′-hydroxypiperidine-4-carboximidamide]	30 to 100 µM
NC1CCN(C(=O)[C@@H](NC(=O)C(=O)c2cc3ccc(OC4CCCC4)cc3s2)C(F)(F)c2ccc(-c3ccc(Cl)cc3)cc2)CC1 [Compound 175-1, (R)—N-(3-(4-aminopiperidin-1-yl)-1-(4′-chloro-[1,1′-biphenyl]-4-yl)-1,1-difluoro-3-oxopropan-2-yl)-2-(6-(cyclopentyloxy)benzo[b]thiophen-2-yl)-2-oxoacetamide trifluoroacetate]	10 to 30 µM
NC1CCN(C(=O)[C@H](NC(=O)C(=O)c2cc3ccc(OC4CCCC4)cc3s2)C(F)(F)c2ccc(-c3ccc(Cl)cc3)cc2)CC1 [Compound 175-2, (S)—N-(3-(4-aminopiperidin-1-yl)-1-(4′-chloro-[1,1′-biphenyl]-4-yl)-1,1-difluoro-3-oxopropan-2-yl)-2-(6-(cyclopentyloxy)benzo[b]thiophen-2-yl)-2-oxoacetamide trifluoroacetate]	30 to 100 µM
O=C([C@@H](NS(=O)(=O)c1ccc2cc(OC3CCCC3)ccc2c1)C(F)(F)c1ccc(-c2ccc(Cl)cc2)cc1)N1Cc2cn[nH]c2C1 [Compound 176-1, (R)—N-(1-(4′-chloro-[1,1′-biphenyl]-4-yl)-3-(4,6-dihydropyrrolo[3,4-c]pyrazol-5(1H)-yl)-1,1-difluoro-3-oxopropan-2-yl)-6-(cyclopentyloxy)naphthalene-2-sulfonamide]	< 1 µM
O=C([C@H](NS(=O)(=O)c1ccc2cc(OC3CCCC3)ccc2c1)C(F)(F)c1ccc(-c2ccc(Cl)cc2)cc1)N1Cc2cn[nH]c2C1 [Compound 176-2, (S)—N-(1-(4′-chloro-[1,1′-biphenyl]-4-yl)-3-(4,6-dihydropyrrolo[3,4-c]pyrazol-5(1H)-yl)-1,1-difluoro-3-oxopropan-2-yl)-6-(cyclopentyloxy)naphthalene-2-sulfonamide]	30 to 100 µM
NC1CC2CCC(C1)N2C(=O)[C@@H](NS(=O)(=O)c1ccc2cc(OC3CC3)ccc2c1)C(F)(F)c1ccc(Br)cc1 (stereo partly drawn) [Compound 177-1, N-((2R)-3-(3-amino-8-azabicyclo[3.2.1]octan-8-yl)-1-(4-bromophenyl)-1,1-difluoro-3-oxopropan-2-yl)-6-cyclopropoxynaphthalene-2-sulfonamide trifluoroacetate]	1 to 10 µM
NC1CC2CCC(C1)N2C(=O)[C@H](NS(=O)(=O)c1ccc2cc(OC3CC3)ccc2c1)C(F)(F)c1ccc(Br)cc1 (stereo partly drawn) [Compound 177-2, N-((2S)-3-(3-amino-8-azabicyclo[3.2.1]octan-8-yl)-1-(4-bromophenyl)-1,1-difluoro-3-oxopropan-2-yl)-6-cyclopropoxynaphthalene-2-sulfonamide trifluoroacetate]	10 to 30 µM
N[C@H]1CCN(C(=O)[C@@H](NS(=O)(=O)c2ccc3cc(OC4CCCC4)ccc3c2)C(F)(F)c2ccc(-c3ccc(Cl)cc3)cc2)C[C@@H]1F [Compound 178-1, N—((R)-3-((3 S,4S)-4-amino-3-fluoropiperidin-1-yl)-1-(4′-chloro-[1,1′-biphenyl]-4-yl)-1,1-difluoro-3-oxopropan-2-yl)-6-(cyclopentyloxy)naphthalene-2-sulfonamide]	1 to 10 µM
N[C@H]1CCN(C(=O)[C@H](NS(=O)(=O)c2ccc3cc(OC4CCCC4)ccc3c2)C(F)(F)c2ccc(-c3ccc(Cl)cc3)cc2)C[C@@H]1F [Compound 178-2, N—((S)-3-((3 S,4S)-4-amino-3-fluoropiperidin-1-yl)-1-(4′-chloro-[1,1′-biphenyl]-4-yl)-1,1-difluoro-3-oxopropan-2-yl)-6-(cyclopentyloxy) naphthalene-2-sulfonamide]	1 to 10 µM
N[C@@H]1CCN(C(=O)[C@H](NS(=O)(=O)c2ccc3cc(OC4CCCC4)ccc3c2)C(F)(F)c2ccc(-c3ccc(Cl)cc3)cc2)C[C@H]1F [Compound 178-3, N—((S)-3-((3R,4R)-4-amino-3-fluoropiperidin-1-yl)-1-(4′-chloro-[1,1′-biphenyl]-4-yl)-1,1-difluoro-3-oxopropan-2-yl)-6-(cyclopentyloxy)naphthalene-2-sulfonamide]	30 to 100 µM
N[C@H]1CC2CCC1N2C(=O)[C@@H](NS(=O)(=O)c1ccc2cc(OC3CCCC3)ccc2c1)C(F)(F)c1ccc(-c2ccc(Cl)cc2)cc1 (stereo partly drawn) [Compound 180-1, N-((2R)-3-((2S)-2-amino-7-azabicyclo[2.2.1]heptan-7-yl)-1-(4′-chloro-[1,1′-biphenyl]-4-yl)-1,1-difluoro-3-oxopropan-2-yl)-6-(cyclopentyloxy)naphthalene-2-sulfonamide]	1 to 10 µM
N[C@H]1CC2CCC1N2C(=O)[C@H](NS(=O)(=O)c1ccc2cc(OC3CCCC3)ccc2c1)C(F)(F)c1ccc(-c2ccc(Cl)cc2)cc1 (stereo partly drawn) [Compound 180-2, N-((2S)-3-((2S)-2-amino-7-azabicyclo[2.2.1]heptan-7-yl)-1-(4′-chloro-[1,1′-biphenyl]-4-yl)-1,1-difluoro-3-oxopropan-2-yl)-6-(cyclopentyloxy)naphthalene-2-sulfonamide]	10 to 30 µM
N[C@@H]1CC2CCC1N2C(=O)[C@H](NS(=O)(=O)c1ccc2cc(OC3CCCC3)ccc2c1)C(F)(F)c1ccc(-c2ccc(Cl)cc2)cc1 (stereo partly drawn) [Compound 180-3, N-((2S)-3-((2R)-2-amino-7-azabicyclo[2.2.1]heptan-7-yl)-1-(4′-chloro-[1,1′-biphenyl]-4-yl)-1,1-difluoro-3-oxopropan-2-yl)-6-(cyclopentyloxy)naphthalene-2-sulfonamide]	1 to 10 µM
N[C@@H]1CC2CCC1N2C(=O)[C@@H](NS(=O)(=O)c1ccc2cc(OC3CCCC3)ccc2c1)C(F)(F)c1ccc(-c2ccc(Cl)cc2)cc1 (stereo partly drawn) [Compound 180-4]	1 to 10 µM

Second part, the compound after the results:

IC50	Structure (SMILES)
1 to 10 µM	O=C([C@@H](NS(=O)(=O)c1ccc(OCC2CCCCC2)cc1)C(F)(F)c1ccc(-c2ccc(Cl)cc2)cc1)N1C[C@H]2CNC[C@H]2C1 [Compound 179-1, N—((R)-1-(4′-chloro-[1,1′-biphenyl]-4-yl)-1,1-difluoro-3-((3aR,6aS)-hexahydropyrrolo[3,4-c]pyrrol-2(1H)-yl)-3-oxopropan-2-yl)-4-(cyclohexylmethoxy) benzenesulfonamide trifluoroacetate]
30 to 100 µM	O=C([C@H](NS(=O)(=O)c1ccc(OCC2CCCCC2)cc1)C(F)(F)c1ccc(-c2ccc(Cl)cc2)cc1)N1C[C@H]2CNC[C@H]2C1 [Compound 179-2, N—((S)-1-(4′-chloro-[1,1′-biphenyl]-4-yl)-1,1-difluoro-3-((3aR,6aS)-hexahydropyrrolo[3,4-c]pyrrol-2(1H)-yl)-3-oxopropan-2-yl)-4-(cyclohexylmethoxy)benzenesulfonamide trifluoroacetate]
1 to 10 µM	NC1CCN(C(=O)[C@@H](NS(=O)(=O)c2ccc(OCC3CCCCC3)cc2)C(F)(F)c2cccc(-c3ccc(Cl)cc3)c2)CC1 [Compound 181-1, (R)—N-(3-(4-aminopiperidin-1-yl)-1-(4′-chloro-[1,1′-biphenyl]-3-yl)-1,1-difluoro-3-oxopropan-2-yl)-4-(cyclohexylmethoxy)benzenesulfonamide trifluoroacetate]
1 to 10 µM	NC1CCN(C(=O)[C@H](NS(=O)(=O)c2ccc(OCC3CCCCC3)cc2)C(F)(F)c2cccc(-c3ccc(Cl)cc3)c2)CC1 [Compound 181-2, (S)—N-(3-(4-aminopiperidin-1-yl)-1-(4′-chloro-[1,1′-biphenyl]-3-yl)-1,1-difluoro-3-oxopropan-2-yl)-4-(cyclohexylmethoxy) benzenesulfonamide trifluoroacetate]
< 1 µM	NC1CCN(C(=O)[C@@H](NS(=O)(=O)c2ccc3cc(OC4CCCC4)ccc3c2)C(F)(F)c2ccc(C3(C(F)(F)F)CC3)cc2)CC1 [Compound 182-1, (R)—N-(3-(4-aminopiperidin-1-yl)-1,1-difluoro-3-oxo-1-(4-(1-(trifluoromethyl)cyclopropyl)phenyl)propan-2-yl)-6-(cyclopentyloxy)naphthalene-2-sulfonamide trifluoroacetate]
10 to 30 µM	NC1CCN(C(=O)[C@H](NS(=O)(=O)c2ccc3cc(OC4CCCC4)ccc3c2)C(F)(F)c2ccc(C3(C(F)(F)F)CC3)cc2)CC1 [Compound 182-2, (S)—N-(3-(4-aminopiperidin-1-yl)-1,1-difluoro-3-oxo-1-(4-(1-(trifluoromethyl)cyclopropyl)phenyl)propan-2-yl)-6-(cyclopentyloxy) naphthalene-2-sulfonamide trifluoroacetate]
< 1 µM	N[C@H]1[C@@H]2CC[C@H]1CN(C(=O)[C@@H](NS(=O)(=O)c1ccc(OCC3CCCCC3)cc1)C(F)(F)c1ccc(-c3ccc(Cl)cc3)cc1)C2 [Compound 183-1, N-((R)-3-((1R,5S,8R)-8-amino-3-azabicyclo[3.2.1]octan-3-yl)-1-(4′-chloro-[1,1′-biphenyl]-4-yl)-1,1-difluoro-3-oxopropan-2-yl)-4-(cyclohexylmethoxy)benzenesulfonamide]
